As a reminder, the Kd is the concentration at which binding is half-saturated. High values mean weaker binding, low ones tighter binding.

Each structure is given as a SMILES string.

The source of these data is paper PMC5367682, “Fragment library screening identifies hits that bind to the non-catalytic surface of Pseudomonas aeruginosa DsbA1” (PLoS ONE, 2017).

T1 sequence (P0C2B2 22-211): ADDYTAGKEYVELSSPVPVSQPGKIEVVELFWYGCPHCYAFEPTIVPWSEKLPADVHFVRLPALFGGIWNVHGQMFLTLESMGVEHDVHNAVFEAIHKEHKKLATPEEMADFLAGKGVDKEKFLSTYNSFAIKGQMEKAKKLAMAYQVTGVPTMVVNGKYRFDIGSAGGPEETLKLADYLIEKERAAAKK

One assay has as its target T1, PaDsbA1 (Pseudomonas aeruginosa, UniProt P0C2B2).
T1 construct: gene dsbA; N-terminal His6 tag cut with TEV; E. coli BL21(DE3) Gold; 15N-labelled for NMR, oxidized; NMR structure residues 3-192
Put plainly: […]-HSQC NMR titration, CSP fitted to one-site model. In kind it is binding.
With `Cc1ccccc1CSc1nncn1N` [compound 1, Fragment 1], binding was characterised by a dissociation constant (Kd) of 900 µM.
Still for that read-out and setting: to `Cc1cc(C(=O)Nc2cccc(O)c2)c(C)o1` [compound 2, Fragment 2] belongs 1600 ± 200 µM; to `Oc1nc2ccccc2s1` [compound 3, Fragment 3], 2100 ± 300 µM; to `Nc1ccc(-c2nc3ccccc3[nH]2)cc1` [compound 4, Fragment 4], 2500 ± 400 µM.
As for `NNC(=O)c1cc(C2CC2)n[nH]1` [compound 5, Fragment 5], the Kd was found to be 2700 ± 700 µM.
Same read-out and setting: to `COc1ccc(-c2nc(N)sc2C)cc1` [compound 6, Fragment 6] belongs 3900 ± 200 µM.
For the molecule `CNCc1ccc(-c2cccc(Cl)c2)o1` [compound 7, Fragment 7], the affinity, expressed as Kd, was 4300 ± 1000 µM.
On the same count and under the same terms, under `Nc1cccc(C(=O)Nc2ccccc2Cl)c1` [compound 8, Fragment 8] stands 4400 ± 5000 µM.

The target of a further assay is T2, EcDsbA (Escherichia coli, UniProt P0AEG4).
T2 construct: gene dsbA; 15N-labelled for HSQC
T2 sequence (P0AEG4 20-208): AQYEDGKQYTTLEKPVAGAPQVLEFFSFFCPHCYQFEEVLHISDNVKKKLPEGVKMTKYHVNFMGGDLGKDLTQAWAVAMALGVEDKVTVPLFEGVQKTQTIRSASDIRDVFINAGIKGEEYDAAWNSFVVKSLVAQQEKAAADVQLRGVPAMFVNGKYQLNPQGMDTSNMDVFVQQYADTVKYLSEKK
Put plainly: […]-HSQC NMR after STD NMR. In kind it is binding.
Molecule `COc1ccc(-c2nc(N)sc2C)cc1` [compound 6, Fragment 6] came in with a Kd of more than 5000 µM.
